Assays:
B-A17 = test: Planktonic growth with extract and antibiotic relative to growth without both (Example 14); format: cell-based
Method: (§1) Starting from the herbal composition, the corresponding water extracts (or processed samples) was prepared according to the previously described Method B using 2.06 g of the above herbal composition with 40 mL water with 100 g/L sucrose for water extraction and including the decantation step before filtration. In an independent water extract preparation without sucrose, it has been measured that 2.06 g/40 mL of herbal composition corresponds to 14.5 g/L as deduced from the weight of the lyophilized dry herbal extract.
(§2) In Example 14 we calculate the growth of the bacteria in presence of antibiotic and/or herbal mix relative to the growth in the absence of both antibiotic and herbal mix extract.

B-A21 = test: as above; format: cell-based
Method: as §1, §2

[1] = M[20C]-576 0 μg/mL, antibiotic 3.91 μg/mL
[2] = M[20C]-576 0 μg/mL, antibiotic 7.81 μg/mL
[3] = M[20C]-576 0 μg/mL, antibiotic 15.63 μg/mL
[4] = M[20C]-576 0 μg/mL, antibiotic 31.25 μg/mL
[5] = M[20C]-576 0 μg/mL, antibiotic 62.50 μg/mL
[6] = M[20C]-576 0 μg/mL, antibiotic 125 μg/mL
[7] = M[20C]-576 0 μg/mL, antibiotic 250 μg/mL
[8] = M[20C]-576 0 μg/mL, antibiotic 500 μg/mL
[9] = M[20C]-576 0 μg/mL, antibiotic 1000 μg/mL
[10] = M[20C]-576 0 μg/mL, antibiotic 2000 μg/mL
[11] = M[20C]-576 0 μg/mL, antibiotic 4000 μg/mL
[12] = M[20C]-576 90.6 μg/mL, antibiotic 3.91 μg/mL
[13] = M[20C]-576 90.6 μg/mL, antibiotic 7.81 μg/mL
[14] = M[20C]-576 90.6 μg/mL, antibiotic 15.63 μg/mL
[15] = M[20C]-576 90.6 μg/mL, antibiotic 31.25 μg/mL
[16] = M[20C]-576 90.6 μg/mL, antibiotic 62.50 μg/mL
[17] = M[20C]-576 90.6 μg/mL, antibiotic 125 μg/mL
[18] = M[20C]-576 90.6 μg/mL, antibiotic 250 μg/mL
[19] = M[20C]-576 90.6 μg/mL, antibiotic 500 μg/mL
[20] = M[20C]-576 90.6 μg/mL, antibiotic 1000 μg/mL
[21] = M[20C]-576 90.6 μg/mL, antibiotic 2000 μg/mL
[22] = M[20C]-576 90.6 μg/mL, antibiotic 4000 μg/mL
[23] = M[20C]-576 181.3 μg/mL, antibiotic 3.91 μg/mL
[24] = M[20C]-576 181.3 μg/mL, antibiotic 7.81 μg/mL
[25] = M[20C]-576 181.3 μg/mL, antibiotic 15.63 μg/mL
[26] = M[20C]-576 181.3 μg/mL, antibiotic 31.25 μg/mL
[27] = M[20C]-576 181.3 μg/mL, antibiotic 62.50 μg/mL
[28] = M[20C]-576 181.3 μg/mL, antibiotic 125 μg/mL
[29] = M[20C]-576 181.3 μg/mL, antibiotic 250 μg/mL
[30] = M[20C]-576 181.3 μg/mL, antibiotic 500 μg/mL
[31] = M[20C]-576 181.3 μg/mL, antibiotic 1000 μg/mL
[32] = M[20C]-576 181.3 μg/mL, antibiotic 2000 μg/mL
[33] = M[20C]-576 181.3 μg/mL, antibiotic 4000 μg/mL

CC1(C)S[C@@H]2[C@H](NC(=O)[C@H](N)c3ccccc3)C(=O)N2[C@H]1C(=O)O [Ampicillin]
planktonic growth relative to the growth in the absence of both extract and antibiotic (B-A17; [1]): 176% | planktonic growth relative to the growth in the absence of both extract and antibiotic (B-A17; [2]): 176% | planktonic growth relative to the growth in the absence of both extract and antibiotic (B-A17; [3]): 148% | planktonic growth relative to the growth in the absence of both extract and antibiotic (B-A17; [4]): 131% | planktonic growth relative to the growth in the absence of both extract and antibiotic (B-A17; [5]): 112% | planktonic growth relative to the growth in the absence of both extract and antibiotic (B-A17; [6]): 2% | planktonic growth relative to the growth in the absence of both extract and antibiotic (B-A17; [7]): 0% | planktonic growth relative to the growth in the absence of both extract and antibiotic (B-A17; [8]): 0% | planktonic growth relative to the growth in the absence of both extract and antibiotic (B-A17; [9]): 0% | planktonic growth relative to the growth in the absence of both extract and antibiotic (B-A17; [10]): 0% | planktonic growth relative to the growth in the absence of both extract and antibiotic (B-A17; [11]): −1% | planktonic growth relative to the growth in the absence of both extract and antibiotic (B-A17; [12]): 64% | planktonic growth relative to the growth in the absence of both extract and antibiotic (B-A17; [13]): 76% | planktonic growth relative to the growth in the absence of both extract and antibiotic (B-A17; [14]): 75% | planktonic growth relative to the growth in the absence of both extract and antibiotic (B-A17; [15]): 58% | planktonic growth relative to the growth in the absence of both extract and antibiotic (B-A17; [16]): 18% | planktonic growth relative to the growth in the absence of both extract and antibiotic (B-A17; [17]): 1% | planktonic growth relative to the growth in the absence of both extract and antibiotic (B-A17; [18]): 0% | planktonic growth relative to the growth in the absence of both extract and antibiotic (B-A17; [19]): 0% | planktonic growth relative to the growth in the absence of both extract and antibiotic (B-A17; [20]): 0% | planktonic growth relative to the growth in the absence of both extract and antibiotic (B-A17; [21]): 0% | planktonic growth relative to the growth in the absence of both extract and antibiotic (B-A17; [22]): 0% | planktonic growth relative to the growth in the absence of both extract and antibiotic (B-A17; [23]): 52% | planktonic growth relative to the growth in the absence of both extract and antibiotic (B-A17; [24]): 53% | planktonic growth relative to the growth in the absence of both extract and antibiotic (B-A17; [25]): 52% | planktonic growth relative to the growth in the absence of both extract and antibiotic (B-A17; [26]): 31% | planktonic growth relative to the growth in the absence of both extract and antibiotic (B-A17; [27]): 7% | planktonic growth relative to the growth in the absence of both extract and antibiotic (B-A17; [28]): −4% | planktonic growth relative to the growth in the absence of both extract and antibiotic (B-A17; [29]): −4% | planktonic growth relative to the growth in the absence of both extract and antibiotic (B-A17; [30]): −4% | planktonic growth relative to the growth in the absence of both extract and antibiotic (B-A17; [31]): −4% | planktonic growth relative to the growth in the absence of both extract and antibiotic (B-A17; [32]): −5% | planktonic growth relative to the growth in the absence of both extract and antibiotic (B-A17; [33]): −1% | planktonic growth relative to the growth in the absence of both extract and antibiotic (B-A21; [1]): 153% | planktonic growth relative to the growth in the absence of both extract and antibiotic (B-A21; [2]): 132% | planktonic growth relative to the growth in the absence of both extract and antibiotic (B-A21; [3]): 131% | planktonic growth relative to the growth in the absence of both extract and antibiotic (B-A21; [4]): 132% | planktonic growth relative to the growth in the absence of both extract and antibiotic (B-A21; [5]): 116% | planktonic growth relative to the growth in the absence of both extract and antibiotic (B-A21; [6]): 150% | planktonic growth relative to the growth in the absence of both extract and antibiotic (B-A21; [7]): 113% | planktonic growth relative to the growth in the absence of both extract and antibiotic (B-A21; [8]): 112% | planktonic growth relative to the growth in the absence of both extract and antibiotic (B-A21; [9]): 106% | planktonic growth relative to the growth in the absence of both extract and antibiotic (B-A21; [10]): −1% | planktonic growth relative to the growth in the absence of both extract and antibiotic (B-A21; [11]): 0% | planktonic growth relative to the growth in the absence of both extract and antibiotic (B-A21; [12]): 108% | planktonic growth relative to the growth in the absence of both extract and antibiotic (B-A21; [13]): 83% | planktonic growth relative to the growth in the absence of both extract and antibiotic (B-A21; [14]): 82% | planktonic growth relative to the growth in the absence of both extract and antibiotic (B-A21; [15]): 82% | planktonic growth relative to the growth in the absence of both extract and antibiotic (B-A21; [16]): 74% | planktonic growth relative to the growth in the absence of both extract and antibiotic (B-A21; [17]): 83% | planktonic growth relative to the growth in the absence of both extract and antibiotic (B-A21; [18]): 75% | planktonic growth relative to the growth in the absence of both extract and antibiotic (B-A21; [19]): 83% | planktonic growth relative to the growth in the absence of both extract and antibiotic (B-A21; [20]): 0% | planktonic growth relative to the growth in the absence of both extract and antibiotic (B-A21; [21]): 0% | planktonic growth relative to the growth in the absence of both extract and antibiotic (B-A21; [22]): 0% | planktonic growth relative to the growth in the absence of both extract and antibiotic (B-A21; [23]): 44% | planktonic growth relative to the growth in the absence of both extract and antibiotic (B-A21; [24]): 63% | planktonic growth relative to the growth in the absence of both extract and antibiotic (B-A21; [25]): 70% | planktonic growth relative to the growth in the absence of both extract and antibiotic (B-A21; [26]): 69% | planktonic growth relative to the growth in the absence of both extract and antibiotic (B-A21; [27]): 70% | planktonic growth relative to the growth in the absence of both extract and antibiotic (B-A21; [28]): 62% | planktonic growth relative to the growth in the absence of both extract and antibiotic (B-A21; [29]): 62% | planktonic growth relative to the growth in the absence of both extract and antibiotic (B-A21; [30]): 61% | planktonic growth relative to the growth in the absence of both extract and antibiotic (B-A21; [31]): −2% | planktonic growth relative to the growth in the absence of both extract and antibiotic (B-A21; [32]): −3% | planktonic growth relative to the growth in the absence of both extract and antibiotic (B-A21; [33]): −2%

Source: patent publication US12702691B2, “Extract of an herbal composition as antimicrobial and/or antibiofilm agent” (ALPHANOSOS S.A.S., priority 2016, dated 2026)
